From PubChem BioAssay AID435016 (Vanderbilt High Throughput Screening Facility, 2010) come the findings set out here.

The assay deals with HEK293 alpha2C/GIRK, thallium flux fluorescence. The experiment in a line: alpha2C-dependent GIRK activation, antagonist reversal – cell-based, thallium flux, with rauwolscine, mechanism study for alpha2C adrenergic receptor project, dose response (AID 435016).

Usually EC50 stands for the concentration giving half of the maximal effect.

Each structure is given as a SMILES string.

In the case of `CCOC(=O)c1ccc(NC(=O)NC(C)C2CCCO2)cc1` (centres undefined), the EC50 is 49.9 µM.

As to `CCSc1nnc(NC(=O)NC(CC)(C(F)(F)F)C(F)(F)F)s1`, the concentration giving a half-maximal response (EC50) was 3.24 µM. Turning to `O=c1c(-c2ccc3c(c2)OCCO3)c(C(F)(F)F)oc2cc(O)cc(O)c12`, the EC50 was found to be 9.18 µM. Turning to `C=CCn1c(=S)[nH]c2ccccc2c1=O`, the EC50 is 3.19 µM.
